Series [1] has as its target T1, Peroxisome proliferator-activated receptor alpha (Homo sapiens, UniProt Q07869).
T1 sequence (Q07869 whole entry): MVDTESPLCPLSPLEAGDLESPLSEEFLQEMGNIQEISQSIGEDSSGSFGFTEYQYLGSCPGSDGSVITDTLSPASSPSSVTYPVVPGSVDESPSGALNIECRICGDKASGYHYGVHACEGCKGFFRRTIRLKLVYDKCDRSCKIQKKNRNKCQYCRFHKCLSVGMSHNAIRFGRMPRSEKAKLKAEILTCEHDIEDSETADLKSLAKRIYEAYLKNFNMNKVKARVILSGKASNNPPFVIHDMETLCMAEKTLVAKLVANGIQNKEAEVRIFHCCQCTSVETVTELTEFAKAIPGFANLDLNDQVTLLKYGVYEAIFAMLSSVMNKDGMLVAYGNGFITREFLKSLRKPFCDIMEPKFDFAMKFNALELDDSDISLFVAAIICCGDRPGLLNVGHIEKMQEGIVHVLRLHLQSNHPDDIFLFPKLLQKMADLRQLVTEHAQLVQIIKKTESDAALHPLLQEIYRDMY
As to the kind of experiment: In vitro transactivation using receptor transactivation assay against hPPAR alpha. The format is functional.

Series [2] concerns the target T2, Peroxisome proliferator-activated receptor gamma (Homo sapiens, UniProt P37231).
T2 sequence (P37231 whole entry): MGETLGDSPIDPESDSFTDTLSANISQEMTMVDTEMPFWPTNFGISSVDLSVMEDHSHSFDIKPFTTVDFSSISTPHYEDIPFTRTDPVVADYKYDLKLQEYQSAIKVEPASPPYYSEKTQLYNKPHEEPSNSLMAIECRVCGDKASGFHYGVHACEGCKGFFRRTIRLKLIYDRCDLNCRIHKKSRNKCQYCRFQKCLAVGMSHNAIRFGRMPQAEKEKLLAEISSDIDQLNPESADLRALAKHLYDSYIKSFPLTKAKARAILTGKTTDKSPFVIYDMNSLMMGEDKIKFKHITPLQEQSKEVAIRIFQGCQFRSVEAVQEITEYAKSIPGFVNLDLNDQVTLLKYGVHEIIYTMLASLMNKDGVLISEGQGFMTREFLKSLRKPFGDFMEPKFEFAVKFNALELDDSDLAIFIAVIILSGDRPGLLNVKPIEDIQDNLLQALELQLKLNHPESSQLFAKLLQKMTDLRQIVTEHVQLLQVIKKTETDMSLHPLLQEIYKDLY
Description: In vitro transactivation using receptor transactivation assay against hPPAR gamma

A short description of series [3]: Clearance after oral administration. The format is ADME, organism-based. Particulars: in vivo.
Series [4] is described as follows: Area under plasma concentration time curve after oral administration at a dose 2.2 mg/kg. Format: ADME, organism-based. Set-up: dose 2.2 mg/kg, route oral. As to conditions: in vivo.
A short description of series [5]: Oral bioavailability. Format: ADME, organism-based. As to conditions: eutheria, in vivo.
A short description of series [6]: Maximum plasma concentration after oral administration at a dose 2.2 mg/kg. The format is ADME, organism-based. Set-up: dose 2.2 mg/kg, route oral.
A short description of series [7]: Area under blood glucose time curve after OGTT on the 9th day of treatment. Format: ADME, tissue-based.
For series [8], the species on record is Mus musculus. Kind of series: Nonfasting blood glucose after 7 days treatment in male db/db mice. The format is functional. As to conditions: 168 h.
The species entered for series [9] is Mus musculus. As to the kind of experiment: Nonfasting insulin after 7 days treatment in male db/db mice. Format: functional. As to conditions: 168 h.
The species entered for series [10] is Mus musculus. Kind of series: Nonfasting triglycerides after 7 days treatment in male db/db mice. Format: functional. As to conditions: 168 h.
Series [11] is filed under the species Mus musculus. As to the kind of experiment: (§1) Maximum achieved blood glucose reduction relative to vehicle treated control group. Format: functional.
Series [12] is filed under the species Mus musculus. As to the kind of experiment: Maximum achieved insulin reduction relative to vehicle treated control group. Format: functional.
The species entered for series [13] is Mus musculus. As to the kind of experiment: Maximum achieved triglycerides reduction relative to vehicle treated control group. Format: functional.
Series [14] is filed under the species Mus musculus. The description is as §1. Format: functional. The source holds these as a separate data set.
A short description of series [15]: Oral half life was reported. The format is ADME, organism-based. Particulars: in vivo.
The nature of series [16]: in vivo.
The nature of series [17]: Clearance after oral administration in rat. Format: ADME, organism-based. Particulars: in vivo.
A short description of series [18]: Oral bioavailability in rat. The format is ADME, organism-based. As to conditions: in vivo.
The nature of series [19]: Volume of distribution during steady state in rat. The format is ADME, organism-based. As to conditions: in vivo, read-out: Vss.
Series [20] can be described thus: Maximum plasma concentration after oral administration at a dose 2.2 mg/kg in rat. The format is ADME, organism-based. Further details: dose 2.2 mg/kg, route oral.
Series [21] is filed under the species Mus musculus. As to the kind of experiment: Minimum concentration which produces the desired nonfasting blood glucose levels after 7 days in 50% of the treated mice. Format: functional. Particulars: 168 h.
The species named for series [22] is Mus musculus. Kind of series: Minimum concentration which produces the desired nonfasting triglyceride levels after 7 days in 50% of the treated male db/db mice. The format is functional. As to conditions: 168 h.
Series [23] is filed under the species Mus musculus. As to the kind of experiment: Maximum achieved insulin reduction relative to vehicle treated control group; NE is Not Effective. The format is functional, organism-based.

Each structure is given as a SMILES string. Where “and” joins values, the source holds several entries; their conditions need not be identical. Equal entries are not always repeated. Calls of active or inactive are those of the source. The rule behind the calls is not given here.

As for `CCO[C@@H](Cc1ccc(OCCn2c3ccc(Br)cc3c3cc(Br)ccc32)cc1)C(=O)O`, the EC50 (usually the concentration at which the effect is half-maximal) was determined as 220 nM in series [1] and 44 nM in series [2].

Take `CCOC(Cc1ccc(OCCC2c3ccccc3-c3ccccc32)cc1)C(=O)O` (stereo unspecified): the EC50 stood at 11700 nM in series [1] and 490 nM in series [2].

The compound `CCOC(Cc1ccc(OCCC=C2c3ccccc3CCc3ccccc32)cc1)C(=O)O` (stereo unspecified) displayed an EC50 in series [2] of 16700 nM.

Turning to `CCOC(Cc1ccc(OCC/C=C2/c3ccccc3COc3ccccc32)cc1)C(=O)O` (stereo unspecified), the EC50 in series [1] and in [2] was 12400 nM throughout.

Consider `CCOC(Cc1ccc(OCCN2c3ccccc3CCc3ccccc32)cc1)C(=O)O` (stereo unspecified), for which the EC50 in series [2] is 750 nM.

Turning to `CCOC(Cc1ccc(OCCCN2c3ccccc3CCc3ccccc32)cc1)C(=O)O` (stereo unspecified), the midpoint of the response in [2], the EC50, lay at 760 nM.

As for `CCc1ccc(CCOc2ccc(CC3SC(=O)NC3=O)cc2)nc1` (stereo unspecified) [PIOGLITAZONE], the CL/F (in general, the apparent clearance, not corrected for the fraction that reaches the circulation) in [3] is 1.4 mL/min/kg. Besides, the AUC (in general, concentration integrated over time) in [4] came to 29200 ng·h/mL. Besides, the bioavailability in [5] amounted to 112%. For the same compound, the Cmax (as a rule, the peak of the concentration-time curve) in series [6] is 4660 ng/mL. Further, in series [7], the “AUC ED50” value came to 12.09 mg/kg. Besides, the ED50 (as a rule, the dose that gives a 50% effect, or the effect in half of the subjects) was 2.62 mg/kg in [8], 15.1 mg/kg in series [9] and 26.7 mg/kg in [10]. Besides, the Max reduction in [11] is reported as 53%; in series [12], 54%; in [13] it was 21%; in series [14], 39%. Further, the half-life (in general, the time in which the quantity being followed falls by half) in series [15] came out at 3.8 h. This compound also registered a Vd in [16] of 0.22 L/kg.

Regarding `CCOC(Cc1ccc(OCCn2c3ccccc3c3ccncc32)cc1)C(=O)O` (stereo unspecified), the EC50 in series [1] was 670 nM; in series [2], 91 nM.

As to `CCOC(Cc1ccc(OCC=C2c3ccccc3-c3ccccc32)cc1)C(=O)O` (stereo unspecified), the values for the EC50 in series [1] and in [2] were 12500 nM and 12100 nM, respectively.

In series [17], `CCOC(Cc1ccc(OCCCN2c3ccccc3OCOc3ccccc32)cc1)C(=O)O` (stereo unspecified) registered a CL/F of 13.7 mL/min/kg. Moreover, the bioavailability in series [18] is 63%. Also, the Vd in series [19] is 0.76 L/kg. This compound showed a Cmax in series [20] of 730 ng/mL. Besides, the “AUC ED50” value in series [7] was 6.57 mg/kg. For the same compound, the Max reduction in series [11] is 17% and 20%; in series [13], 13%. Also, the values for the ED50 in [21] and in series [22] were 8.11 mg/kg and 18.3 mg/kg, respectively. The NE result in [23] was “inactive”. For the same compound, the EC50 in [1] and in [2] was 1200 nM throughout.

For the compound `CCO[C@@H](Cc1ccc(OCCn2c3ccccc3c3cc(Br)ccc32)cc1)C(=O)O`, the EC50 in [1] is 2400 nM; in series [2], 330 nM.

Source of the values: ChEMBL document CHEMBL1135600, “Novel tricyclic-alpha-alkyloxyphenylpropionic acids: dual PPARalpha/gamma agonists with hypolipidemic and antidiabetic activity” (J Med Chem, 2002).
